Measured values reported in patent US11229628B2, “TRPA1 and TRPV4 inhibitors and methods of using the same for organ-specific inflammation and itch” (Duke University, priority 2015, dated 2022).
“Also recorded” adds a separate entry of the source.

What was measured:
[1] = tested on: mouse paw-pad skin; experiment: UVB-photodermatitis of mouse paw-pad skin after topical treatment (immunolabeling, histopathology, Edn1 qPCR); type: in vivo
Description: A viscous solution of 68% EtOH/5% glycerol plus 1 mM or 5 mM GSK205 (none for control) was applied to hindpaws by rubbing in 20 μL, applied at time-points 1 hour and again 10 min before UV exposure.
Routine procedures were followed as described previously (Chen et al., 2009). Mice were perfused transcardially with 30 mL PBS, followed by 30 mL 4% paraformaldehyde. Tissues, including the L5 DRGs (bilateral), and footpad preparations, were dissected and post-fixed in 4% paraformaldehyde. Tissue blocks were further cryoprotected in 30% sucrose in PBS for 24-48 hours. For mouse TRPV4, keratin-specific antibodies, phospho-ERK, IL-6, IL-1β, CXCL5 and caspase-1, tissue was prepared as frozen blocks and subsequently sectioned on a cryostat. For CD68, CD15 (neutrophil elastase) and CD3, mouse skin was prepared by 2% PFA perfusion. Footpad and DRG sections (both at 6-10 μm) were thaw-mounted, blocked with 5% normal goat serum (NGS; Jackson), then incubated overnight at 4° C. with the following primary antibodies: rabbit anti-TRPV4 (1:300; Abcam), mouse anti-keratin 14 (1:300; Abcam against C-terminal peptide beyond residue 850); rabbit anti-keratin 14 (1:1000; Fuchs-Lab), rabbit anti-phosph-ERK1/2 (1:500; Cell signaling technologies), goat anti-IL-1β (1:800; Abcam), goat anti-IL-6 (1:200; Santa Cruz Biotechnology Inc); rabbit anti-caspase-1 (1:200; Biovision Research Products, CA); goat anti-mouse LIX/CXCL5 (1:200; R&D Systems Inc), anti-CD68, anti-[…], and anti-CD3 (AbDSerotec). Immunodetection was accomplished with appropriate fluorescently-labeled secondary antibodies (AlexaFluor595, AlexaFluor488-conjugated antibodies at 1:600; Invitrogen; for CD15 biotinylated secondary antibody from donkey, 1:400 followed by rhodamine-streptavidine 1:250), or with peroxidase-linked detection reagents (for CD68) for 2 hours at room-temperature. Sections were rinsed, mounted, and cover-slipped with fluoromount (Sigma). Digital micrographs were obtained using a BX61 Olympus upright microscope, also with a Zeiss LSM510 confocal, both equipped with high-res CCD camera, and acquired with constant exposure settings, using ISEE or Zeiss Zen software. Morphometric analysis was conducted using ImageJ freeware (v1.45) with tailored regions-of-interest that spared the nuclear compartment. ImageJ was also used for determination of DRG surface area.
In view of TRPV4-dependence of ET/Edn1 expression in skin, we measured Edn1 mRNA abundance in GSK205 vs. vehicle treated paw-pad skin. […] In striking contrast, and in keeping with histopathology, Edn1 mRNA-expression in GSK205 topically-treated skin was found unchanged.
We also tested the response of down-stream UVB effector mechanisms to GSK205 treatment in vivo.

[2] = tested on: periostin secretion by keratinocytes; experiment: Periostin secretion by keratinocytes in response to histamine; type: cell-based
Text: As detailed in the Examples, secretion of periostin (93 kDa protein) by keratinocytes in response to histamine exposure is dependent on TRPV4. […] Periostin has a role in chronic allergic skin inflammation and also pathologic-fibrotic remodeling of the skin. Histamine activates TRPV4 channels via specific activation of histamine H1R-receptors in keratinocytes. This TRPV4-dependent calcium influx regulates release of periostin from keratinocytes. In terms of fibrotic tissue remodeling of organs, TRPV4 channels expressed by fibroblasts may have a role in lung fibrosis evoked by bleomycin, which may relate to fibroblasts elsewhere, including skin fibroblasts and synovial fibroblasts. Inhibitors as detailed herein may potently block TRPV4 activation in keratinocytes and also skin fibroblasts. Based on the above signaling mechanisms, this will attenuate and prevent fibrotic responses in the skin, also chronic skin-remodeling tissue responses mediated by endogenous pathogenetic mediator molecules such as periostin. As for synovia of the joint, one response to joint trauma is development of synovial fibrosis and contracture. Synoviocytes, synovial fibroblasts and infiltrating inflammatory cells may have roles in this maladaptive response, as all of these cells are known to express TRPV4. […]

CN(CCc1ccc(Nc2nc(-c3cccnc3)cs2)cc1)Cc1ccccc1 [GSK205]
histopathology of UVB-photodermatitis ([1]; topical 5 mM GSK205): virtual elimination of inflammation; also recorded: markedly reduced inflammatory infiltrate | keratinocyte expression of CXCL5 in UVB-exposed footpad ([1]; topical 5 mM GSK205): significant blocks; also recorded: attenuates | keratinocyte expression of IL-1β in UVB-exposed footpad ([1]; topical 5 mM GSK205): failed to upregulate; also recorded: attenuates | keratinocyte expression of IL-6 in UVB-exposed footpad ([1]; topical 5 mM GSK205): significant blocks; also recorded: attenuates | Edn1 mRNA expression in paw-pad skin after UVB ([1]; topical 5 mM GSK205, 2 hour and 24 hour time-points): unchanged; also recorded: complete lack of this regulation | secretion of periostin by histamine-stimulated keratinocytes [2]: completely eliminated
